From patent publication US12527753B2, “Cysteamine for the treatment, mitigation and prevention of coronaviral, e.g., SARS-CoV-2, infections” (The Regents of the University of Michigan, priority 2020, dated 2026) come the findings set out here.

The test system of the assay is SARS-CoV-2 Variants Alpha, Beta, Gamma and Delta. Put plainly: In vitro activity against SARS-CoV-2 variants (pooled statements).

As to 2-aminoethanethiol [cysteamine], the “inactivation of the virus in tissue culture” value (10 mM solution, contingent on time of exposure and concentration) is recorded as 85-100%. Besides, for the setting “10 mM, 15-90 minutes exposure”, the “inactivation of the variants” value was “near complete inactivation”.
